Reference: patent US20250270221A1, “SOLID FORMS OF JAK INHIBITOR AND PROCESS OF PREPARING THE SAME” (Incyte Corporation, priority 2022, published 2025)
Each block holds one molecule with its values, some of them ahead of it.

Key:
Type in all cases: physicochemical
[1] = Dynamic vapor sorption (DVS Intrinsic, Method D, not dried); set-up: Hysteresis: unit not given here
Protocol: The samples were not dried prior to analysis. Sorption and desorption data were collected from 5% to 95% RH in 10% RH increments under a nitrogen purge. The equilibrium criteria used for the analyses were 0.001 dm/dt weight change in 5 minutes with a minimum step time of 30 minutes and maximum equilibration time of 180 minutes with a 3 minute data logging interval. Data were not corrected for the initial moisture content of the sample.

[2] = Water activity slurry experiments (XRPD of solid phase); details: 20 d
Protocol: Limited water activity slurries were conducted utilizing ruxolitinib di-hydrate (see table below). The effect of water activity (aw) on the hydration state of the di-hydrate was investigated through competitive water activity trituration experiments (slurries) in various aqueous solvent mixtures. The resulting solid phase was characterized by XRPD. […] Water activity is also related to relative humidity in that RH %=aw×100. Therefore, it is possible to directly relate the stability of an anhydrous/hydrate system in slurry experiments to solid-state stability. […] The method is particularly valuable when relatively slow kinetics of conversion in the solid state prevents reaching true equilibrium in a reasonable timeframe, since solvent-mediated transformation accelerates the conversion process.

[3] = Dynamic vapor sorption (VTI-SA+, sample pre-dried at 60° C.)
Protocol: The DVS experiment was performed on a VTI-SA+ Vapor Sorption Analyzer from TA Instruments. […] Then the humidity was cycled from 5% RH to 95% RH (adsorption) and back to 5% RH (desorption) with 5% RH interval at a constant temperature of 25° C. The equilibration criteria were 0.010 wt % in 5 minutes with a maximum equilibration time of 180 minutes per step.

[4] = Dehydration of ruxolitinib di-hydrate (resulting solid form)
Excerpt: Dehydration of ruxolitinib di-hydrate results in the isolation of anhydrous crystalline ruxolitinib free base (Form I) (see table below). Form I is described in more detail in Example 15.

[5] = Solubility of crystalline ruxolitinib di-hydrate in organic solvents; details: for solubility: organic solvent or mixture, thermodynamic from solid
Excerpt: The resulting ruxolitinib free base readily dissolved in the organic solvents.

[6] = Aqueous solubility of crystalline ruxolitinib di-hydrate; details: 20 °C, thermodynamic from solid, 20-25° C.
[7] = Relative humidity testing (physical stability, XRPD)
Excerpt: Ruxolitinib di-hydrate was held at select relative humidities to help determine range of physical stability (see table below). The d-hydrate was transferred to a vial, which was then uncapped and placed inside a jar, for a designated time period, containing a saturated aqueous salt solution: […]

[8] = Target RH 95.0%, sample RH 95.8%
[9] = Target RH 95.0%, sample RH 94.0%

Hygroscopicity ([1]; DVS Method D): hygroscopic | Desorp Mass Change ([1]; Target RH 5.0%, sample RH 5.1%): 5.04% | Sorp Mass Change ([1]; Target RH 5.0%, sample RH 5.4%): 0.00% | Hysteresis ([1]; Target RH 15.0%): 9.78 | Sorp Mass Change ([1]; Target RH 15.0%, sample RH 15.6%): 0.06% | Desorp Mass Change ([1]; Target RH 15.0%, sample RH 16.1%): 9.84% | Hysteresis ([1]; Target RH 25.0%): 9.94 | Sorp Mass Change ([1]; Target RH 25.0%, sample RH 25.4%): 0.11% | Desorp Mass Change ([1]; Target RH 25.0%, sample RH 25.9%): 10.05% | Hysteresis ([1]; Target RH 35.0%): 10.06 | Sorp Mass Change ([1]; Target RH 35.0%, sample RH 35.4%): 0.15% | Desorp Mass Change ([1]; Target RH 35.0%, sample RH 36.0%): 10.21% | Hysteresis ([1]; Target RH 45.0%): 10.16 | Sorp Mass Change ([1]; Target RH 45.0%, sample RH 45.5%): 0.19% | Desorp Mass Change ([1]; Target RH 45.0%, sample RH 46.1%): 10.35% | Hysteresis ([1]; Target RH 55.0%): 10.21 | Sorp Mass Change ([1]; Target RH 55.0%, sample RH 55.3%): 0.26% | Desorp Mass Change ([1]; Target RH 55.0%, sample RH 56.1%): 10.47% | Hysteresis ([1]; Target RH 65.0%): 4.28 | Sorp Mass Change ([1]; Target RH 65.0%, sample RH 65.5%): 6.30% | Desorp Mass Change ([1]; Target RH 65.0%, sample RH 66.2%): 10.58% | Hysteresis ([1]; Target RH 75.0%): 3.65 | Sorp Mass Change ([1]; Target RH 75.0%, sample RH 75.3%): 7.04% | Desorp Mass Change ([1]; Target RH 75.0%, sample RH 76.3%): 10.68% | Hysteresis ([1]; Target RH 85.0%): 0.79 | Sorp Mass Change ([1]; Target RH 85.0%, sample RH 86.1%): 10.00% | Desorp Mass Change ([1]; Target RH 85.0%, sample RH 89.4%): 10.79% | Desorp Mass Change [1, 8]: 10.83% | Sorp Mass Change [1, 8]: 10.83% | Additional weight loss ([1]; desorption from 15 to 5% RH): 4.8% | Weight loss ([1]; desorption from 95 to 15% RH): 1% | Weight gain ([1]; from 5 to 55% RH): 0.26% | Weight gain ([1]; from 55 to 95% RH): 10.6% | Solid form of post DVS sample ([1]; less crystalline than the starting material): Form I
SMILES: N#CC[C@H](C1CCCC1)n1cc(-c2ncnc3[nH]ccc23)cn1 [Form I, (R)-3-(4-(7H-pyrrolo[2,3-d]pyrimidin-4-yl)-1H-pyrazol-1-yl)-3-cyclopentylpropanenitrile]

Result (solid form) ([2]; 0.34 aw, 75:25 DMSO/H2O): Di-hydrate | Result (solid form) ([2]; 0.42 aw, 70:30 DMSO/H2O): Di-hydrate | Result (solid form) ([2]; 0.68 aw, 50:50 DMSO/H2O): Di-hydrate | Solid form after DVS (XRPD) ([3]; after cycle 5% RH to 95% RH and back to 5% RH, 25° C.): crystalline ruxolitinib di-hydrate | Water re-adsorbed ([3]; at 95% RH, 25° C., after pre-drying at 60° C.): 9.6% | Result (solid form) ([4]; 42° C. oven, 1 d): Di- | Result (solid form) ([4]; 50° C., vacuum oven, 1 d): Form I | Result (solid form) ([4]; 80° C./30 minutes): amorphous | Result (solid form) ([4]; 110° C./20 minutes): amorphous | Result (solid form) ([4]; P2O5 jar, RT, 4 d): Form I | Result (solid form) ([4]; P2O5 jar, RT, 5 d): Form I | Result (solid form) ([4]; P2O5 jar, RT, 13 d): conversion | Result (solid form) ([4]; P2O5 jar, RT, 21 d, di-hydrate crystals): Form I | Result (solid form) ([4]; RT, vacuum oven, 1 d): Form I | solubility ([5]; acetone): > 500000 µg/mL | solubility ([5]; ethyl acetate): > 200000 µg/mL | solubility ([5]; Ethanol (EtOH)): > 500000 µg/mL | solubility ([5]; Isopropanol (IPA)): > 500000 µg/mL | solubility ([5]; Methanol (MeOH)): > 500000 µg/mL | Behaviour of the hydrate in polar solvents ([5]; polar organic solvents): lost crystalline water | solubility ([6]; aqueous buffer, pH 6.0 (PBS)): 17.4 µg/mL | solubility ([6]; aqueous buffer, pH 6.5 (PBS)): 106 µg/mL | solubility ([6]; aqueous buffer, pH 7.0 (PBS)): 101 µg/mL | solubility ([6]; aqueous buffer, pH 7.4 (PBS)): 100 µg/mL | solubility ([6]; fassif, FeSSIF (pH 6.5)): 112 µg/mL | solubility ([6]; saline or isotonic, Saline (pH 5.5)): 105 µg/mL | solubility ([6]; simulated gastric fluid, 0.1N HCl): > 10700 µg/mL | solubility ([6]; simulated gastric fluid, SGF (pH 1.6)): > 11000 µg/mL | solubility ([6]; FeSSIF (pH 5.0)): 419 µg/mL | solubility ([6]; Water): 111 µg/mL | solubility ([6]; HCl solution, simulated gastric fluid, pH 2.0 (HCl)): 3470 µg/mL | solubility ([6]; KHP buffer, aqueous buffer, pH 3.0 (KHP)): 1570 µg/mL | solubility ([6]; KHP buffer, aqueous buffer, pH 5.5 (KHP)): 107 µg/mL | solubility ([6]; KPH buffer (so in the source), aqueous buffer, pH 4.0 (KPH)): 362 µg/mL | solubility ([6]; acetate buffer, aqueous buffer, pH 5.5 (Acetate)): 93.5 µg/mL | solubility ([6]; aqueous KHP solution, aqueous buffer, pH 5.0 (KHP)): 147 µg/mL | solubility ([6]; aqueous acetate solution, aqueous buffer, pH 4.0 (Acetate)): 186 µg/mL | solubility ([6]; aqueous acetate solution, aqueous buffer, pH 5.0 (Acetate)): 296 µg/mL | solubility ([6]; borate buffer, aqueous buffer, pH 8.5 (Borate)): 112 µg/mL | Sorp Mass Change ([1]; Target RH 5.0%, sample RH 4.8%): 0.0013% | Desorp Mass Change ([1]; Target RH 5.0%, sample RH 5.6%): 0.0334% | Hysteresis ([1]; Target RH 15.0%): 0.0528 | Sorp Mass Change ([1]; Target RH 15.0%, sample RH 15.1%): 0.0412% | Desorp Mass Change ([1]; Target RH 15.0%, sample RH 17.1%): 0.0940% | Hysteresis ([1]; Target RH 25.0%): 0.0461 | Sorp Mass Change ([1]; Target RH 25.0%, sample RH 25.0%): 0.0707% | Desorp Mass Change ([1]; Target RH 25.0%, sample RH 25.8%): 0.1168% | Hysteresis ([1]; Target RH 35.0%): 0.0399 | Sorp Mass Change ([1]; Target RH 35.0%, sample RH 35.0%): 0.0904% | Desorp Mass Change ([1]; Target RH 35.0%, sample RH 35.9%): 0.1302% | Hysteresis ([1]; Target RH 45.0%): 0.0378 | Sorp Mass Change ([1]; Target RH 45.0%, sample RH 45.1%): 0.1069% | Desorp Mass Change ([1]; Target RH 45.0%, sample RH 46.0%): 0.1447% | Hysteresis ([1]; Target RH 55.0%): 0.0357 | Sorp Mass Change ([1]; Target RH 55.0%, sample RH 55.1%): 0.1214% | Desorp Mass Change ([1]; Target RH 55.0%, sample RH 56.0%): 0.1572% | Hysteresis ([1]; Target RH 65.0%): 0.0347 | Sorp Mass Change ([1]; Target RH 65.0%, sample RH 65.1%): 0.1359% | Desorp Mass Change ([1]; Target RH 65.0%, sample RH 66.0%): 0.1706% | Hysteresis ([1]; Target RH 75.0%): 0.0311 | Sorp Mass Change ([1]; Target RH 75.0%, sample RH 74.9%): 0.1561% | Desorp Mass Change ([1]; Target RH 75.0%, sample RH 76.6%): 0.1872% | Hysteresis ([1]; Target RH 85.0%): 0.0233 | Sorp Mass Change ([1]; Target RH 85.0%, sample RH 84.8%): 0.1882% | Desorp Mass Change ([1]; Target RH 85.0%, sample RH 87.6%): 0.2115% | Desorp Mass Change [1, 9]: 0.2343% | Sorp Mass Change [1, 9]: 0.2343% | Weight lost upon desorption ([1]; desorption 95 to 5% RH): 0.20% | Weight gained ([1]; from 5 to 95% relative humidity): 0.23% | Result (solid form) ([7]; 0% RH, N2, RT, 1 d): Di-hydrate + Form I | Result (solid form) ([7]; 11% RH, RT, 2 d): Di-hydrate | Result (solid form) ([7]; 11% RH, RT, 14 d): Di-hydrate | Result (solid form) ([7]; 33% RH, RT, 2 d): Di-hydrate | Result (solid form) ([7]; 53% RH, RT, 2 d): Di-hydrate | Result (solid form) ([7]; 98% RH, RT, 2 d): Di-hydrate | Result (solid form) ([7]; 98% RH, RT, 4 d): Di-hydrate | Relative humidity at which the di-hydrate form is physically stable ([7]; during the time tested): above 11 % RH | Relative humidity of conversion to anhydrous crystalline free base form (Form I) ([7]; undetermined value, during the time tested): below 11 % RH
SMILES: N#CC[C@H](C1CCCC1)n1cc(-c2ncnc3[nH]ccc23)cn1 [Ruxolitinib Di-hydrate, (R)-3-(4-(7H-pyrrolo[2,3-d]pyrimidin-4-yl)-1H-pyrazol-1-yl)-3-cyclopentylpropanenitrile di-hydrate]
Solid form after pre-dried step ([3]; 60° C. under dry N2 (0% RH) for 1 h): dehydrated to form amorphous ruxolitinib free base
